Test in all cases: Cytotoxic activity of dimers (ATP luminescence or MTS cell proliferation assay)
What all share (assay type): cell-based
For orientation: Tetrazolium dyes change colour on reduction, which living cells bring about.

The test system of assay [1] is H187 lung cancer cell line. As to conditions: Homo sapiens, NCI-H187; H187 cells; free dimer; 72 h incubation. The procedure:
(§1) The cytotoxic activity of dimers of this invention can be tested against various cancer cell lines, such as H226 lung cancer, DMS 79 lung cancer, H187 lung cancer, N87 gastric cancer, 786-O renal cancer, and/or OVCAR3 ovarian cancer cell lines. The ability of dimers to inhibit cell proliferation can be measured by either an ATP luminescence assay or an MTS cell proliferation assay.
(§2) This is a general procedure for an ATP luminescence assay: Cells are seeded at 1×10^3 cells/well in 96-well plates for 3 h for ATP CellTiterGlo™ assays, respectively. Serial dilutions (1:3) of compounds are added to the wells. Plates are allowed to incubate for 72 h. A CellTiterGlo™ cell viability kit from Promega is used to measure ATP content of cells treated with test compounds following manufacturer's instruction. A decrease in the ATP content is a measure of decrease in cellular viability. The EC50 value—the concentration at which an agent reduces cell viability by 50% of the maximum effect—can be calculated using PRISM™ software, version 5.0 (GraphPad Software, La Jolla, Calif., USA).
(§3) The MTS cell proliferation assay was performed as follows: CellTiter 96 Aqueous Non-Radioactive Cell proliferation Kit from Promega (Madison, Wis.) is used to determine the number of viable cells in cell proliferation assay. Tumor cells are plated at certain seeding densities in sterile 384-well black clear bottom Matrix plates at 40 μL per well and incubated overnight at 37° C. in 5% CO2 before assaying. On the next day, one set of cell plates (10 plates) is used to determine time zero cell density, and 3-(4,5-dimethylthiazol-2-yl)-5-(3-carboxymethoxyphenyl)-2-(4-sulfophenyl)-2H-tetrazolium is added at 4 μL/well into 10 plates followed by incubation at 37° C. in 5% CO2 for three hours. This tetrazolium reagent is bioreduced by […] to form a formazan product which is soluble in aqueous solution. Absorbance at 490 nm is measured on an Envision reader (Perkin Elmer, Boston, Mass.). On the same day, compounds are added into remaining cell plates (T72 plates) and incubated at 37° C. in 5% CO2. After 72 hours, 4 μL MTS reagents are then added into those cell plates. The plates are further incubated at 37° C. in 5% CO2 for three hours and the absorbance values at A490 were measured on an Envision reader.

Assay [2] relates to N87 gastric cancer cell line. As to conditions: N87 cells; free dimer; 72 h incubation. The method, then: as §1, §2, §3
Assay [3] deals with DMS 79 lung cancer cell line. As to conditions: Homo sapiens; DMS 79 cells; free dimer; 72 h incubation. The procedure: as §1, §2, §3

Molecules are shown by their SMILES.

What is called IC50 is the concentration that inhibits the measured activity by half. Low readings indicate higher potency, high ones lower potency.

Turning to `COc1cc2c(cc1OCc1cccc(COc3cc4c(cc3OC)C(=O)N3Cc5cc(N)ccc5C[C@H]3C=N4)n1)N=C[C@@H]1Cc3ccccc3CN1C2=O` [IIa-03], the IC50 in assay [1] came to 0.002 nM; in assay [2], 0.03 nM; in assay [3] it was 0.002 nM.

As to `COc1cc2c(cc1OCc1cc(COc3cc4c(cc3OC)C(=O)N3Cc5ccccc5C[C@H]3C=N4)c3ccccc3n1)N=C[C@@H]1Cc3ccccc3CN1C2=O` [IIa-07], the concentration for half-maximal inhibition (IC50) in assay [2] came out at 0.25 nM.

Turning to `COc1cc2c(cc1OCc1cc(O)cc(COc3cc4c(cc3OC)C(=O)N3Cc5ccccc5C[C@H]3C=N4)n1)N=C[C@@H]1Cc3ccccc3CN1C2=O` [IIa-11], in assay [2], the midpoint of inhibition, the IC50, lay at 4.92 nM.

Take `COc1cc2c(cc1OCc1cncc(COc3cc4c(cc3OC)C(=O)N3Cc5ccccc5C[C@H]3C=N4)c1)N=C[C@@H]1Cc3ccccc3CN1C2=O` [IIa-06]: the 50% inhibitory concentration (IC50) in assay [2] amounted to 0.14 nM.

The compound `COc1cc2c(cc1OCc1cc(Cl)cc(COc3cc4c(cc3OC)C(=O)N3Cc5ccccc5C[C@H]3C=N4)n1)N=C[C@@H]1Cc3ccccc3CN1C2=O` [IIa-13] returned an IC50 in assay [2] of 0.03 nM.

In assay [2], `COc1cc2c(cc1OCc1cccc(COc3cc4c(cc3OC)C(=O)N3Cc5ccccc5C[C@H]3CN4)n1)NC[C@@H]1Cc3ccccc3CN1C2=O` [IIa-15] came in with a half-maximal inhibitory concentration (IC50) of 2.88 nM.

Consider `COc1cc2c(cc1OCc1cccc(COc3cc4c(cc3OC)C(=O)N3Cc5ccccc5C[C@H]3C=N4)n1)N=C[C@@H]1Cc3ccccc3CN1C2=O` [IIa-01], for which the IC50 was found to be 0.001 nM in assay [1], 0.02 nM in assay [2] and 0.001 nM in assay [3].

In assay [2], `COc1cc2c(cc1OCc1cccc(COc3cc4c(cc3OC)C(=O)N3Cc5cccnc5C[C@H]3C=N4)n1)N=C[C@@H]1Cc3ccccc3CN1C2=O` [IIa-16] had a concentration for half-maximal inhibition (IC50) of 0.08 nM.

For the compound `COc1cc2c(cc1OCc1cccc(COc3cc4c(cc3OC)C(=O)N3Cc5cccnc5C[C@@H]3C=N4)n1)N=C[C@@H]1Cc3ccccc3CN1C2=O` [Dimer 100], the IC50 in assay [2] is 0.1 nM.

`COc1cc2c(cc1OCc1cc(CO)cc(COc3cc4c(cc3OC)C(=O)N3Cc5ccccc5C[C@H]3C=N4)n1)N=C[C@@H]1Cc3ccccc3CN1C2=O` [IIa-08] displayed an IC50 in assay [2] of 2.71 nM.

The values are drawn from patent US9822112B2, “Heteroarylene-bridged benzodiazepine dimers, conjugates thereof, and methods of making and using” (priority 2015, dated 2017).
